Assays:
[1] = system: antibodies in sera from SARS patients (sera 1a, 1b, 2, 6, 37, 62, London, SARS-yellow, SARS-green); format: binding, human; set-up: Binding of serum 6 to linear peptides of protein X1 of SARS-CoV Urbani / Binding of serum 37 to linear peptides of protein X1 of SARS-CoV Urbani / Binding of serum 6 to looped/cyclic peptide (PEPSCAN-ELISA) / Binding of serum 37 to looped/cyclic peptide (PEPSCAN-ELISA) / Binding of serum 37 to looped/cyclic peptides of protein X1 of SARS-CoV Urbani / Binding of serum 6 to linear peptides of protein X2 / Binding of serum 37 to linear peptides of protein X2 / Binding of serum 37 to looped/cyclic peptides of protein X2 of SARS-CoV Urbani / Binding of serum 6 to linear peptides of protein M of SARS-CoV Urbani / Binding of serum 37 to linear peptides of protein M of SARS-CoV Urbani / Binding of serum 6 to looped/cyclic peptides of protein M of SARS-CoV Urbani / Binding of serum 37 to looped/cyclic peptides of protein M of SARS-CoV Urbani / Binding of serum 6 to linear peptides of protein X3 of SARS-CoV Urbani / Binding of serum 37 to linear peptides of protein X3 of SARS-CoV Urbani / Binding of serum 37 to looped/cyclic peptides of protein X3 of SARS-CoV Urbani / Binding of serum 6 to linear peptides of protein X4 of SARS-CoV Urbani / Binding of serum 37 to linear peptides of protein X4 of SARS-CoV Urbani / Binding of serum 37 to looped/cyclic peptides of protein X4 of SARS-CoV Urbani / Binding of serum 6 to linear peptides of protein X5 of SARS-CoV Urbani / Binding of serum 37 to linear peptides of protein X5 of SARS-CoV Urbani / Binding of serum 37 to looped/cyclic peptides of protein X5 of SARS-CoV Urbani / Binding of serum 6 to linear peptides of protein N of SARS-CoV Urbani / Binding of serum 37 to linear peptides of protein N of SARS-CoV Urbani / Binding of serum 6 to linear peptide (PEPSCAN-ELISA) / Binding of serum 1a to looped/cyclic peptides of protein N of SARS-CoV Urbani / Binding of serum 1b to looped/cyclic peptides of protein N of SARS-CoV Urbani / Binding of serum 2 to looped/cyclic peptides of protein N of SARS-CoV Urbani / Binding of serum 6 to looped/cyclic peptides of protein N of SARS-CoV Urbani / Binding of serum 37 to looped/cyclic peptides of protein N of SARS-CoV Urbani / Binding of serum 62 to looped/cyclic peptides of protein N of SARS-CoV Urbani / Binding of serum London to looped/cyclic peptides of protein N of SARS-CoV Urbani / Binding of serum SARS-green to looped/cyclic peptides of protein N of SARS-CoV Urbani: unit not given here
[2] = system: control sera (pooled serum of ten healthy LUMC hospital workers; commercial negative donor pooled serum from the Dutch bloodbank); format: binding, human; set-up: Binding of Control serum LUMC to linear peptides / Binding of Control serum Blood-bank to linear peptides / Binding of Control serum LUMC to looped peptides / Binding of Control Serum Blood-Bank to Looped peptides / Binding of Control serum LUMC to linear peptides of the protein M of SARS-CoV Urbani / Binding of Control serum Blood-bank to linear peptides of the protein M of SARS-CoV Urbani / Binding of Control serum LUMC to looped peptides of the protein M of SARS-CoV Urbani / Binding of Control Serum Blood-Bank to Looped peptides of the protein M of SARS-CoV Urbani: unit not given here
[3] = system: rabbit serum obtained by immunizing a rabbit with the SARS-CoV strain Frankfurt 1; format: binding; set-up: Binding of a rabbit serum to linear peptides / Binding of a rabbit serum to looped peptides / Rabbit serum linear peptides / Rabbit serum looped peptides / Binding of a rabbit serum to linear peptides of protein N of SARS-CoV Urbani (Rabbit serum linear peptides) / Binding of a rabbit serum to looped/cyclic peptides of protein N of SARS-CoV Urbani (Rabbit serum looped peptides): unit not given here
[4] = system: recombinant human anti-SARS-CoV antibody 03-018; format: binding; set-up: Binding of antibody 03-018 to linear peptides of the N protein of SARS-CoV Urbani / Binding of antibody 03-018 to looped/cyclic peptides of the N protein of SARS-CoV Urbani: unit not given here

Sequence	Binding of serum 1a to linear peptides of protein N of SARS-CoV Urbani [1]	Binding of serum 1a to looped/cyclic peptides of protein N of SARS-CoV Urbani [1]	Binding of serum 1b to linear peptides of protein N of SARS-CoV Urbani [1]	Binding of serum 1b to looped/cyclic peptides of protein N of SARS-CoV Urbani [1]	Binding of serum 2 to linear peptides of protein N of SARS-CoV Urbani [1]	Binding of serum 2 to looped/cyclic peptides of protein N of SARS-CoV Urbani [1]	Binding of serum 6 to linear peptides of protein N of SARS-CoV Urbani [1]	Binding of serum 6 to looped/cyclic peptides of protein N of SARS-CoV Urbani [1]	Binding of serum 37 to linear peptides of protein N of SARS-CoV Urbani [1]	Binding of serum 37 to looped/cyclic peptides of protein N of SARS-CoV Urbani [1]	Binding of serum 62 to linear peptides of protein N of SARS-CoV Urbani [1]	Binding of serum 62 to looped/cyclic peptides of protein N of SARS-CoV Urbani [1]	Binding of serum London to linear peptides of protein N of SARS-CoV Urbani [1]	Binding of serum London to looped/cyclic peptides of protein N of SARS-CoV Urbani [1]	Binding of serum SARS-green to linear peptides of protein N of SARS-CoV Urbani [1]	Binding of serum SARS-green to looped/cyclic peptides of protein N of SARS-CoV Urbani [1]	Binding of serum SARS-yellow to linear peptides of protein N of SARS-CoV Urbani [1]	Binding of serum SARS-yellow to looped/cyclic peptides of protein N of SARS-CoV Urbani [1]	Binding of Control Serum Blood-Bank to Looped peptides [2]	Binding of Control serum Blood-bank to linear peptides [2]	further results
GPTDSTDNNQNGGRN	0.3	0.4	0.2	0.4	0.4	0.6	0.2	0.3	0.8	0.9	0.6	0.6	0.6	0.5	0.6	1.4	0.6	0.4	0.6	0.8	Binding of Control serum LUMC to linear peptides [2]: 0.7; Binding of Control serum LUMC to looped peptides [2]: 0.5; Binding of a rabbit serum to linear peptides of protein N of SARS-CoV Urbani (Rabbit serum linear peptides) [3]: 0.1; Binding of a rabbit serum to looped/cyclic peptides of protein N of SARS-CoV Urbani (Rabbit serum looped peptides) [3]: 0.4; Binding of antibody 03-018 to linear peptides of the N protein of SARS-CoV Urbani [4]: 0.2; Binding of antibody 03-018 to looped/cyclic peptides of the N protein of SARS-CoV Urbani [4]: 0.2
GQGVPINTNSGPDDQ	0.3	0.2	0.1	0.1	0.2	0.3	0.2	0.1	0.8	0.4	0.6	0.1	0.6	0.3	0.5	0.1	0.6	0.1	0.5	0.5	Binding of Control serum LUMC to linear peptides [2]: 0.5; Binding of Control serum LUMC to looped peptides [2]: 0.3; Binding of a rabbit serum to linear peptides of protein N of SARS-CoV Urbani (Rabbit serum linear peptides) [3]: 0.1; Binding of a rabbit serum to looped/cyclic peptides of protein N of SARS-CoV Urbani (Rabbit serum looped peptides) [3]: 0.0; Binding of antibody 03-018 to linear peptides of the N protein of SARS-CoV Urbani [4]: 0.1; Binding of antibody 03-018 to looped/cyclic peptides of the N protein of SARS-CoV Urbani [4]: 0.2

Reference: patent publication US20070128217A1 (priority 2003, published 2007)
